Experimental data taken from patent publication US20160067211A1, “PHARMACEUTICAL COMPOSITION” (Eberhard Karls Universitaet Tuebingen Medizinische Fakultaet, priority 2013, published 2016).

Tests used:
[1] = test system: human HDAC enzymes HDAC1-HDAC11; experiment: HDAC inhibition profiling (Fluor de Lys); type: biochemical; details: 100 μM, HDAC1-HDAC11, 1% DMSO
Experimental: (§1) FIG. 2: In silico docking analysis with 6-PN and 8-PN illustrates the inhibitory potential on human-derived HDACs of class I and II. (A) Results of the in silico docking analysis of 6-PN and 8-PN with crystal structures of HDAC2 (class I) and HDAC4 (class II). […] Both molecules are predicted to interact with the zinc ion as well as other residues of the catalytic center. Docking analyses of 6-PN and 8-PN in the individual HDAC binding pockets were performed using GOLD (version 4.1.2) and MOE (version 2009.10). (B) Overall HDAC inhibition in cellular extracts of the human cell line HeLa by increasing concentrations of 6-PN and 8-PN (5 μM, 10 μM, 20 μM, 50 μM and 100 μM). As reference inhibitor 100 μM SAHA was used. Every concentration was tested three times in triplicates. Shown are the mean±SD. (C) Specific fluometric profiling assay using recombinant human HDACs of classes I, II and IV. Specific inhibition values were generated for the treatment with 100 μM 6-PN and 8-PN. […]
The human HDAC profiling assay was performed on the basis of the Fluor de Lys™ technology by Scottish Biomedical, Glasgow, United Kingdom. The percentage inhibition values of 100 μM of 6-PN and 100 μM of 8-PN against the human HDAC enzymes HDAC1, HDAC2, HDAC3, HDAC4, HDAC5, HDAC6, HDAC7, HDAC8, HDAC9, HDAC10, and HDAC11 were determined. […]

[2] = test system: human HDAC enzymes from nuclear extract of HeLa cells; experiment: HDAC inhibitor screening assay (HeLa nuclear extract); type: biochemical; details: 6-PN 5 μM, 8-PN 10 μM
Experimental: as §1, with “8-PN. TSA was used as reference inhibitor (HDAC1, 2, 3, 6, 10, 11: 10 nM; HDAC4, 8, 9: 1 μM; HDAC5, 7:10 μM). The inhibition vales for every HDAC were yielded by one experiment performed in duplicates Shown are the mean±S.A.” for “8-PN.”

[3] = test system: pS6P, P70S6 kinase, pERK, caspase-3, Bcl-xl in SK-MEL-28 melanoma cells; experiment: Western blot of signalling proteins; type: cell-based, human; details: SK-MEL-28, 100 μM
Experimental: FIG. 8: 6-PN and 8-PN decrease expression of pS6p via down regulation of pERK/pP90. Western blot analysis of SK-MEL-28 melanoma cells 1 hour, 2 hours, 4 hours, 12 hours, and 24 hours after treatment with 100 μM 6-PN or 8-PN. 6-PN and 8-PN induced down regulation of pS6p accompanied by a decrease of pERK and pP90, respectively. 6-PN and 8-PN induced time dependent increase of p70s6-kinase.
The following antibodies were used: Anti-Vinculin and Anti-Actin (1:5000, Sigma-Aldrich), Anti-Acetyl-Histon H3 (1:5000, Millipore, Billerica, USA), Anti-Caspase-3 (1:1000), Anti-AKT, Anti-pAKT, Anti-ERK, Anti-pERK, […], Anti-p70S6 Kinase, and Anti-pS6 protein (1:1000), all from Cell Signaling, Frankfurt, Germany), Anti-LC3 (1:5000, Sigma-Aldrich).
To further analyze the type of cell death induced by 6-PN and 8-PN, western blot analyses of SK-MEL-28 melanoma cells were performed 1, 2, 4, 12 and 24 hours after the treatment with 100 μM 6-PN and 8-PN. […] Upon PN treatment an inconsistent expression of oncogenic AKT and phospho-AKT (pAKT) was detected. […] Thus, there was an obvious discrepancy between the expression of pAKT and pS6P. Therefore it was first also looked for the expression of P70S6 kinase and its phosphorylated form. […] Therefore it was next asked whether the S6P could be phosphorylated by a different mechanism. In this respect, activated ERK can phosphorylate the p90 ribosomal S6 kinase (pP90). pP90 also phosphorylates the S6P (in addition to the P70S6 kinase). Since the pP70S6 kinase was absent in the used cells (SK-MEL-28 and BLM), it was hypothesized that the phosphorylation of the S6P was conducted via the pERK/pP90 pathway, independent from the P70S6 signalling. This hypothesis was supported by the parallel down-regulation of the bands for pP90 (Thr359/Ser363) and pS6P 12 hours after the treatment with 6-PN, and the reappearance of both bands after 24 hours (FIG. 8). […] The western blot experiments were repeated with BLM cells under the same treatment conditions and yielded similar results (not shown).

[4] = biological target: P-glycoprotein (Homo sapiens, UniProt P08183); details: cited from earlier work
[5] = test system: prostate cancer cell line DU145; details: DU145 in vitro; cited from earlier work
[6] = test system: angiogenesis induced by basic fibroblast growth factor and vascular endothelial growth factor; details: induced by bFGF and VEGF, three-dimensional collagen gel in vitro; cited from earlier work

Chain of P-glycoprotein (P08183 whole entry): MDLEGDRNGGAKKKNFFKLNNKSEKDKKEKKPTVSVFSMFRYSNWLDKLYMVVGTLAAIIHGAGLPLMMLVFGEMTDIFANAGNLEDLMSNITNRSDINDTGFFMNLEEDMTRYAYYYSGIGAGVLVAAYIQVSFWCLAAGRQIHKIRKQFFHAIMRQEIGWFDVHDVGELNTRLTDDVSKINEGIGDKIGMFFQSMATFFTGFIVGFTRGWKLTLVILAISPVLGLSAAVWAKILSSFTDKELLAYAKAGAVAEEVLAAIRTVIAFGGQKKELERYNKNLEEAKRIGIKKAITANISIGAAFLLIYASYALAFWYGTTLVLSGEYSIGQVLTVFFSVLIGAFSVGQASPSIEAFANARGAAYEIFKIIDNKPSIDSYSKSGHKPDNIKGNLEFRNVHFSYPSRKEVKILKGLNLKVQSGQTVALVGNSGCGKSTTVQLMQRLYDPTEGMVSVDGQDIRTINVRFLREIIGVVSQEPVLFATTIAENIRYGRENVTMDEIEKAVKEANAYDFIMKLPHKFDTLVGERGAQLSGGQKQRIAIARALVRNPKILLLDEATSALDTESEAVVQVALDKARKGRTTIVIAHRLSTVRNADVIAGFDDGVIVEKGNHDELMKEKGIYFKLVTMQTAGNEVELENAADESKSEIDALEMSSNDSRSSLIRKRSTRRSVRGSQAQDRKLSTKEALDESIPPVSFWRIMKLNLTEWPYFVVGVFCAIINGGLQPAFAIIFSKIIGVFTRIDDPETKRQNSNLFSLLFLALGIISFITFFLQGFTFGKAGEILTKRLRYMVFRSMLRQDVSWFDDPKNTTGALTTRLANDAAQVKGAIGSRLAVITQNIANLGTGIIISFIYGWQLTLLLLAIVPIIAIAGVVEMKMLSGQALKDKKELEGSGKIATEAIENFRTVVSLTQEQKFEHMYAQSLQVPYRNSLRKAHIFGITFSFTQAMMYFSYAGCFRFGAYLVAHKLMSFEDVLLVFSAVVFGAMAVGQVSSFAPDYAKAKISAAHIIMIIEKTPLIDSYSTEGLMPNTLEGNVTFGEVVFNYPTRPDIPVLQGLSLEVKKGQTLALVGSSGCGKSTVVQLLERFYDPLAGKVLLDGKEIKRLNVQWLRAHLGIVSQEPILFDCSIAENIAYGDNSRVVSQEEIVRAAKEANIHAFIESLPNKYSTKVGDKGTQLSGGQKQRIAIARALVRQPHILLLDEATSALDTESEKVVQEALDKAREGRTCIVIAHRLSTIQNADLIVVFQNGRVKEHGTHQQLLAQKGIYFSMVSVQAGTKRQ

SMILES: CC(C)=CCc1c(O)cc(O)c2c1OC(c1ccc(O)cc1)CC2=O (stereo not drawn) [8-PN, 5,7-Dihydroxy-2-(4-hydroxy-phenyl)-8-(3-methyl-but-2-enyl)-chroman-4-one]
- inhibition of HDAC activity on all tested human HDACs [1]: strongly inhibited
- HDAC inhibitory effect at low concentration [2]: showed inhibitory effects
- protein levels of caspase-3 and Bcl-xl ([3]; 1-24 hours): decreased protein levels
- phospho-S6 protein (pS6P) expression ([3]; after 4 hours, 12 hours, and 24 hours): strongly down regulated
- pERK expression ([3]; after 12 hours and 24 hours): strong down regulation
- P70S6 kinase bands ([3]; time-dependent (1-24 hours)): down-regulated
- inhibition of the P-glycoprotein [4]: inhibition
- antiproliferative effects [5]: antiproliferative effects
- angiogenesis [6]: inhibits the angiogenesis
